Several values for one entry are separate records, joined by “and”; a condition that tells them apart may be missing. Identical values can stand only once.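 Growth conditions: 96-well plates. Treatment: test compound, 48 hours, 5 concentrations. Analysis: linear interpolation between bracketing concentrations; unreached endpoints set to highest concentration. GI50: concentration for 50% inhibition of growth. TGI: total growth inhibition.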
system: IGROV1 ovarian; test: DTP human tumour cell line panel, 48 h

SMILES | GI50 | TGI
CS(=O)(=O)Nc1cc(-c2ccc3ncnc(Nc4cccc(Cl)c4)c3c2)cnc1Cl | 0.0784 µM | 0.476 µM
CN(C)c1ccc(C(O)C2=CC(=O)c3ccccc3C2=O)cc1 (configuration not stated) | 1.94 µM | 4.52 µM
Clc1ccc(CN2CCCN(Cc3ccc(Cl)cc3)C2c2cc3ccccc3c3ccccc23)cc1 |  | > 100 µM
COc1ccc2c(c1OC)O/C(=C\c1ncc([N+](=O)[O-])n1C)C2=O | 1.36 µM | 9.46 µM
CC1(C)N=C(N)N=C(N)N1c1cccc(CCc2ccccc2)c1 | 0.113 µM | 17.6 µM
O=C1Nc2ccc3c(c2/C1=C\c1cc2c(cc1Br)OCO2)OCO3 | 0.199 µM | 1.7 µM
COc1cc2cc(Oc3cccc(NC(=O)Nc4cc(C(F)(F)F)cc(C(F)(F)F)c4)c3)c(C)nc2cc1OC | 0.509 µM | 2.3 µM
COc1ccc(C2NC(=S)NC3=C2CCOc2c3ccc3ccccc23)cc1 (configuration not stated) | > 100 µM | > 100 µM
COc1cc2ncnc(Oc3cccc(NC(=O)Nc4cc(C(C)(C)C(F)(F)F)on4)c3)c2cc1OC | 0.565 µM and 0.634 µM | 4.61 µM and 3.69 µM
COc1ccc(/C=C/C(=O)c2cc3c(N)c(C(=O)Nc4ccc(OC)cc4)sc3nc2C)cc1 | 0.551 µM | > 50 µM
CCOC(=O)[C@@H]1CSC(CC)=C(C(=O)O)N1 | > 100 µM | > 100 µM
C=C1CC[C@H]2C(C)=CC[C@H]3C(=C)C(=O)O[C@@H]3[C@@H]12 |  | > 100 µM
COc1ccc(-c2csc(Nc3cccc(-c4csc(C)n4)c3)n2)cc1 | 0.697 µM | > 41.6 µM
COc1cc(/C=C2\SC(N3CCCCC3)=NC2=O)ccc1OCCCCCCOc1ccc(/C=C2\SC(N3CCCCC3)=NC2=O)cc1OC | 11.1 µM | 43 µM
CCCCCCCCCCCCCCCC[n+]1ccccc1 | 0.384 µM | 1.9 µM
CCOC1Oc2ccc(C)cc2C(=O)/C1=C\Nc1ccc(S(N)(=O)=O)cc1 (configuration not stated) | 15 µM | > 50 µM
Nc1ccccc1C#Cc1ccccc1C#Cc1cccs1 | 18.4 µM | 90.8 µM
OCC(O)C(O)C(O)C(O)c1nnc2c(-c3ccccc3)nc3ccccc3n12 (configuration not stated) | 14.5 µM | > 100 µM
COc1ccc(/C=N/NS(=O)(=O)c2ccccc2)cc1 |  | > 100 µM
CCOc1ccc2cc(-c3nn(CC4CCNCC4)c4ncnc(N)c34)ccc2c1 | 11.7 µM | 27.8 µM
O=C(O)CCCCC1CCSS1 (configuration not stated) |  | > 100 µM
O=C1C(=O)C2(CC1S(=O)(=O)c1ccccc1)c1ccccc1-c1ccccc12 (configuration not stated) |  | 47.9 µM
O=c1oc2c3ccc4ccccc4c3n(CCN3CCCCC3)c2c2ccccc12 |  | > 100 µM
Cc1ccc(S(=O)C(C)C(Cl)c2ccccc2)cc1 (configuration not stated) |  | > 100 µM
COc1ccccc1C(=O)N(Cc1ccccc1)c1ccc(Cl)c(C(=O)OC(C)C)c1 |  | > 100 µM
OCCN(CO)CO |  | > 100 µM
COc1ccc(Br)c(C(=O)N2CCc3ccccc32)c1N |  | > 100 µM
C=C1C[C@@H]2O[C@H]3[C@H]4[C@@H](CC[C@@](C)(OC(=O)CCC)[C@H]42)[C@@H](C)C(=O)O[C@@]3(C)CC[C@H]1OO | 17.8 µM | 35.6 µM

system: SR leukemia; test: DTP human tumour cell line panel, 48 h

SMILES | GI50 | TGI
CS(=O)(=O)Nc1cc(-c2ccc3ncnc(Nc4cccc(Cl)c4)c3c2)cnc1Cl | 0.371 µM | 4.95 µM
CN(C)c1ccc(C(O)C2=CC(=O)c3ccccc3C2=O)cc1 (configuration not stated) | 1.88 µM | 4.49 µM
Clc1ccc(CN2CCCN(Cc3ccc(Cl)cc3)C2c2cc3ccccc3c3ccccc23)cc1 |  | > 100 µM
COc1ccc2c(c1OC)O/C(=C\c1ncc([N+](=O)[O-])n1C)C2=O | 0.103 µM | 
CC1(C)N=C(N)N=C(N)N1c1cccc(CCc2ccccc2)c1 | 0.282 µM | > 64.3 µM
O=C1Nc2ccc3c(c2/C1=C\c1cc2c(cc1Br)OCO2)OCO3 | 0.239 µM | > 30.8 µM
COc1cc2cc(Oc3cccc(NC(=O)Nc4cc(C(F)(F)F)cc(C(F)(F)F)c4)c3)c(C)nc2cc1OC | 1.62 µM | 5.97 µM
COc1ccc(C2NC(=S)NC3=C2CCOc2c3ccc3ccccc23)cc1 (configuration not stated) | 7.27 µM | > 100 µM
COc1cc2ncnc(Oc3cccc(NC(=O)Nc4cc(C(C)(C)C(F)(F)F)on4)c3)c2cc1OC | 2.95 µM and 2.6 µM | 11.9 µM and > 10 µM
COc1ccc(/C=C/C(=O)c2cc3c(N)c(C(=O)Nc4ccc(OC)cc4)sc3nc2C)cc1 | 0.889 µM | > 50 µM
CCOC(=O)[C@@H]1CSC(CC)=C(C(=O)O)N1 | > 100 µM | > 100 µM
C=C1CC[C@H]2C(C)=CC[C@H]3C(=C)C(=O)O[C@@H]3[C@@H]12 |  | > 100 µM
COc1ccc(-c2csc(Nc3cccc(-c4csc(C)n4)c3)n2)cc1 | 0.0878 µM | 0.27 µM
COc1cc(/C=C2\SC(N3CCCCC3)=NC2=O)ccc1OCCCCCCOc1ccc(/C=C2\SC(N3CCCCC3)=NC2=O)cc1OC | 9.16 µM | 65.8 µM
CCOC1Oc2ccc(C)cc2C(=O)/C1=C\Nc1ccc(S(N)(=O)=O)cc1 (configuration not stated) | 9.23 µM | > 50 µM
Cc1cc(NN=C(c2ccc(O)cc2)c2ccc(O)cc2)c([N+](=O)[O-])cc1[N+](=O)[O-] | 5.55 µM | 50.2 µM
COc1ccc(/C=N/NS(=O)(=O)c2ccccc2)cc1 |  | > 100 µM
CCOc1ccc2cc(-c3nn(CC4CCNCC4)c4ncnc(N)c34)ccc2c1 | 4.23 µM | 19.6 µM
O=C(O)CCCCC1CCSS1 (configuration not stated) |  | > 100 µM
O=C1C(=O)C2(CC1S(=O)(=O)c1ccccc1)c1ccccc1-c1ccccc12 (configuration not stated) |  | 50 µM
O=c1oc2c3ccc4ccccc4c3n(CCN3CCCCC3)c2c2ccccc12 |  | > 100 µM
Cc1ccc(S(=O)C(C)C(Cl)c2ccccc2)cc1 (configuration not stated) |  | > 100 µM
COc1ccc(Br)c(C(=O)N2CCc3ccccc32)c1N |  | 79.1 µM
CCCCCC[C@H]1C(=O)O[C@H](C)[C@H](NC(=O)c2cccc(NC=O)c2OC)C(=O)O[C@@H](C)[C@@H]1OC(=O)CCC (tested in a mixture with another compound) | 3.64 µM | 18.8 µM
C=C1C[C@@H]2O[C@H]3[C@H]4[C@@H](CC[C@@](C)(OC(=O)CCC)[C@H]42)[C@@H](C)C(=O)O[C@@]3(C)CC[C@H]1OO | 5.48 µM | 18.4 µM

system: U251 CNS; test: DTP human tumour cell line panel, 48 h

SMILES | GI50 | TGI
CS(=O)(=O)Nc1cc(-c2ccc3ncnc(Nc4cccc(Cl)c4)c3c2)cnc1Cl | 0.503 µM | 2.68 µM
CN(C)c1ccc(C(O)C2=CC(=O)c3ccccc3C2=O)cc1 (configuration not stated) | 1.74 µM | > 100 µM
Clc1ccc(CN2CCCN(Cc3ccc(Cl)cc3)C2c2cc3ccccc3c3ccccc23)cc1 |  | > 100 µM
COc1ccc2c(c1OC)O/C(=C\c1ncc([N+](=O)[O-])n1C)C2=O | 2.95 µM | 13.9 µM
CC1(C)N=C(N)N=C(N)N1c1cccc(CCc2ccccc2)c1 | 0.113 µM | > 100 µM
O=C1Nc2ccc3c(c2/C1=C\c1cc2c(cc1Br)OCO2)OCO3 | 0.422 µM | 1.68 µM
COc1cc2cc(Oc3cccc(NC(=O)Nc4cc(C(F)(F)F)cc(C(F)(F)F)c4)c3)c(C)nc2cc1OC | 1.08 µM | 2.47 µM
COc1ccc(C2NC(=S)NC3=C2CCOc2c3ccc3ccccc23)cc1 (configuration not stated) | > 100 µM | > 100 µM
COc1cc2ncnc(Oc3cccc(NC(=O)Nc4cc(C(C)(C)C(F)(F)F)on4)c3)c2cc1OC | 2.98 µM and 4.09 µM | 14.1 µM and > 10 µM
COc1ccc(/C=C/C(=O)c2cc3c(N)c(C(=O)Nc4ccc(OC)cc4)sc3nc2C)cc1 | 1.65 µM | > 30.9 µM
CCOC(=O)[C@@H]1CSC(CC)=C(C(=O)O)N1 | > 100 µM | > 100 µM
C=C1CC[C@H]2C(C)=CC[C@H]3C(=C)C(=O)O[C@@H]3[C@@H]12 |  | > 100 µM
COc1ccc(-c2csc(Nc3cccc(-c4csc(C)n4)c3)n2)cc1 | 0.783 µM | > 27.6 µM
COc1cc(/C=C2\SC(N3CCCCC3)=NC2=O)ccc1OCCCCCCOc1ccc(/C=C2\SC(N3CCCCC3)=NC2=O)cc1OC | 4.61 µM | 16.1 µM
CCCCCCCCCCCCCCCC[n+]1ccccc1 | 0.326 µM and 0.535 µM | 1.36 µM and 1.92 µM
CCOC1Oc2ccc(C)cc2C(=O)/C1=C\Nc1ccc(S(N)(=O)=O)cc1 (configuration not stated) | 12.9 µM | > 50 µM

Reference: PubChem BioAssay (NCI)
